Non-standard residues stand in square brackets, D forms with d. Residues, ends and D or L forms follow the SMILES beside them. *: point of attachment. Phe(4-amidino) = N=C(N)c1ccc(C[C@H](N)C(=O)O)cc1; Arg(NO2) = N=C(NCCC[C@H](N)C(=O)O)N[N+](=O)[O-]; Abu(4-CN) = N#CCC[C@H](N)C(=O)O; Cha = N[C@@H](CC1CCCCC1)C(=O)O; Ala(CN) = N#CC[C@H](N)C(=O)O; Chg = N[C@H](C(=O)O)C1CCCCC1; Alloc = C=CCOC(=O)*; Acm = CC(=O)NC*

The target of the test is T1, human factor VIIa and TF (Homo sapiens, UniProt P08709).
T1 construct: human factor VIIa and TF
T1 sequence (P08709 213-466 limits assumed): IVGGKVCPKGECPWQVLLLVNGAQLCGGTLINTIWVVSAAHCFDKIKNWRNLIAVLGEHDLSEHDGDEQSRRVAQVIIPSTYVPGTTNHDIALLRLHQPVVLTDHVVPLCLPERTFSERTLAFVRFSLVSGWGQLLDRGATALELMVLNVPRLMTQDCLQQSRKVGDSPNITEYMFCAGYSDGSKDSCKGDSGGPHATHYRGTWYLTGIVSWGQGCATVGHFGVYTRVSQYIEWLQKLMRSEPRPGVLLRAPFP
T1 sequence (P08709 61-212 limits assumed): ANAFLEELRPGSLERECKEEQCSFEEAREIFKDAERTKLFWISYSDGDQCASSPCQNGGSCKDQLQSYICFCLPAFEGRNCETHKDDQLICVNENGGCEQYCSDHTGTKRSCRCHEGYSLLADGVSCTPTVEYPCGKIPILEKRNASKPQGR
T1 sequence (P13726 33-295 partner): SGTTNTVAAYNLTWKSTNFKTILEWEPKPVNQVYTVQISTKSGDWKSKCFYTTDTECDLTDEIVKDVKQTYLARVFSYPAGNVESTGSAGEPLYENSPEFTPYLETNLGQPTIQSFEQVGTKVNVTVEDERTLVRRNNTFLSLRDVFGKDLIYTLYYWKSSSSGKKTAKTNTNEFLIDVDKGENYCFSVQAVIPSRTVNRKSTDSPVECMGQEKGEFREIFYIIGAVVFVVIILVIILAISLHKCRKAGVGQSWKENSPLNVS
Description: Determination of Ki for FVIIa inhibition (chromogenic assay, substrate S-2288). The test is classed as biochemical. To be noted: human factor VIIa 5 nM and TF 10 nM, S-2288 500 μM, 25° C., 15 minute preincubation, pH 8.15; read-out: Factor VIIa inhibitory activities Ki. The method, then:
The inhibitory activity (Ki) of each compound towards […] activity was determined using a chromogenic assay essentially as described previously. J. A. Ostrem, F. Al-Obeidi, P. Safar, A. Safarova, S. K. Stringer, M. Patek, M. T. Cross, J. Spoonamore, J. C. LoCascio, P. Kasireddy, D. S. Thorpe, N. Sepetov, M. Lebi, P. Wildgoose, P. Strop, "Discovery of a novel, potent, and specific family of factor Xa inhibitors via combinatorial chemistry". Biochemistry 37 (1998) 1053-1059. Kinetic assays were conducted at 25° C. in half-area microtiter plates (Costar Corp., Cambridge, Mass.) using a kinetic plate reader (Molecular Devices Spectramax 250). A typical assay consisted of 25 μl of human factor VIIa and TF (5 nM and 10 nM, respective final concentration) combined with 40 μl of inhibitor dilutions in 10% DMSO/TBS-PEG buffer (50 mM Tris, 15 mM NaCl, 5 mM CaCl2; 0.05% PEG 8k, pH 8.15). Following a 15 minute preincubation period, the assay was initiated by the addition of 35 μl of the chromogenic substrate S-2288 (D-Ile-Pro-Arg-pNA, Pharmacia Hepar Inc, 500 μM final concentration.). The apparent inhibition constants were calculated from the slope of the progress curves during the linear part of the time course, typically between 1 and 5 min following addition of substrate to the assay. The true Ki was subsequently determined for each compound by correcting for substrate concentration (S) and the Km using the formula Ki=Ki app/(1+(S)/Km). I. H. Segal, Enzyme Kinetics, pp 100-125 (John Wiley & Sons, N.Y., 1975).
One may read the Ki as the equilibrium dissociation constant of an inhibitor or competing ligand from its target. Turning to `C=CCOC(=O)N[C@@H](Cc1ccc(C(=N)N)cc1)C(=O)N[C@@H](CCC(=O)O)C(=O)N[C@@H](CCC#N)C(=O)N[C@@H](CC1CCCCC1)C(N)=O` [Alloc--pAph--Glu-2-Abu(4-CN)--Cha--NH2] (Alloc-[Phe(4-amidino)]E[Abu(4-CN)][Cha]-NH2), the inhibitory constant (Ki) worked out at 63 nM.

In the case of `C=CCOC(=O)N[C@@H](Cc1ccc(C(=N)N)cc1)C(=O)N[C@@H](CCC(=O)O)C(=O)N[C@@H](CC#N)C(=O)N[C@@H](CC1CCCCC1)C(N)=O` [Alloc--pAph--Glu--Ala(3-CN)--Cha--NH2] (Alloc-[Phe(4-amidino)]E[Ala(CN)][Cha]-NH2), the Ki stood at 120 nM.

On to `C=CCOC(=O)N[C@@H](Cc1ccc(C(=N)N)cc1)C(=O)N[C@@H](CCC(=O)O)C(=O)N[C@@H](CCCNC(=N)N[N+](=O)[O-])C(=O)N[C@@H](CC1CCCCC1)C(N)=O` [Alloc--pAph--Glu--Arg(NO2)--Cha--NH2] (Alloc-[Phe(4-amidino)]E[Arg(NO2)][Cha]-NH2), for which the Ki was determined as 14 nM.

On to `C=CCOC(=O)N[C@@H](Cc1ccc(C(=N)N)cc1)C(=O)N[C@@H](CCC(=O)O)C(=O)N[C@@H](CCCNC(=N)N)C(=O)N[C@@H](CC1CCCCC1)C(N)=O` [Alloc--pAph--Glu--Arg--Cha--NH2, Alloc-pAph-Glu-Arg-Cha-NH2] (Alloc-[Phe(4-amidino)]ER[Cha]-NH2), for which the Ki was 46 nM.

As to `C=CCOC(=O)N[C@@H](Cc1ccc(C(=N)N)cc1)C(=O)N[C@@H](CCC(=O)O)C(=O)N[C@@H](CCCNC(=N)N)C(=O)N[C@H](C(N)=O)C1CCCCC1` [Alloc--pAph--Glu--Arg--Chg--NH2, Alloc-pAph-Glu-Arg-Chg-NH2] (Alloc-[Phe(4-amidino)]ER[Chg]-NH2), the Ki worked out at 238 nM.

For `C=CCOC(=O)N[C@@H](Cc1ccc(C(=N)N)cc1)C(=O)N[C@@H](CCC(=O)O)C(=O)N[C@@H](CC(N)=O)C(=O)NC1CCCc2ccccc21` (some centres unmarked) [Alloc--pAph--Glu--Asn-1,2,3,4-tetrahydro-1-naphthylamide], the inhibitory constant (Ki) worked out at 45 nM.

As for `C=CCOC(=O)N[C@@H](Cc1ccc(C(=N)N)cc1)C(=O)N[C@@H](CCC(=O)O)C(=O)N[C@@H](CC(N)=O)C(=O)NC(C)c1cccc2ccccc12` (some centres unmarked) [Alloc--pAph--Glu--Asn-1-(1-naphthyl)ethylamide], the Ki came to 21 nM.

Take `C=CCOC(=O)N[C@@H](Cc1ccc(C(=N)N)cc1)C(=O)N[C@@H](CCC(=O)O)C(=O)N[C@@H](CC(N)=O)C(=O)NCc1cccc2ccccc12` [Alloc--pAph--Glu--Asn-1-naphthylmethylamide]: the inhibitory constant (Ki) was 31 nM.

Take `C=CCOC(=O)N[C@@H](Cc1ccc(C(=N)N)cc1)C(=O)N[C@@H](CCC(=O)O)C(=O)N[C@@H](CC(N)=O)C(=O)NCC(c1ccccc1)c1ccccc1` [Alloc--pAph--Glu--Asn-2,2-diphenylethylamide]: the Ki was 49 nM.

Regarding `C=CCOC(=O)N[C@@H](Cc1ccc(C(=N)N)cc1)C(=O)N[C@@H](CCC(=O)O)C(=O)N[C@@H](CC(N)=O)C(=O)NCc1ccc(F)cc1F` [Alloc--pAph--Glu--Asn-2,4-difluorobenzylamide], the Ki amounted to 51 nM.

Regarding `C=CCOC(=O)N[C@@H](Cc1ccc(C(=N)N)cc1)C(=O)N[C@@H](CCC(=O)O)C(=O)N[C@@H](CC(N)=O)C(=O)NCCc1cccc2ccccc12` [Alloc--pAph--Glu--Asn-2-(1-naphthyl)ethylamide], the inhibition constant (Ki) is 22 nM.

With `C=CCOC(=O)N[C@@H](Cc1ccc(C(=N)N)cc1)C(=O)N[C@@H](CCC(=O)O)C(=O)N[C@@H](CC(N)=O)C(=O)NCCc1ccc2ccccc2c1` [Alloc--pAph--Glu--Asn-2-(2-naphthyl)ethylamide], the Ki was 52 nM.

As to `C=CCOC(=O)N[C@@H](Cc1ccc(C(=N)N)cc1)C(=O)N[C@@H](CCC(=O)O)C(=O)N[C@@H](CC(N)=O)C(=O)NCCc1ccccn1` [Alloc--pAph--Glu--Asn-2-(2-pyridyl)ethylamide], the Ki came out at 71 nM.

Turning to `C=CCOC(=O)N[C@@H](Cc1ccc(C(=N)N)cc1)C(=O)N[C@@H](CCC(=O)O)C(=O)N[C@@H](CC(N)=O)C(=O)NCCc1cccc(Cl)c1` [Alloc--pAph--Glu--Asn-2-(3-chlorophenyl)ethylamide], the Ki is 23 nM.

Turning to `C=CCOC(=O)N[C@@H](Cc1ccc(C(=N)N)cc1)C(=O)N[C@@H](CCC(=O)O)C(=O)N[C@@H](CC(N)=O)C(=O)NCCN1CCOCC1` [Alloc--pAph--Glu--Asn-2-(4-morpholinyl)ethylamide], the Ki was 410 nM.

Take `C=CCOC(=O)N[C@@H](Cc1ccc(C(=N)N)cc1)C(=O)N[C@@H](CCC(=O)O)C(=O)N[C@@H](CC(N)=O)C(=O)NCCc1ccc(S(N)(=O)=O)cc1` [Alloc--pAph--Glu--Asn-2-(4-sulfamoylphenyl)ethylamide]: the inhibition constant (Ki) worked out at 350 nM.

Turning to `C=CCOC(=O)N[C@@H](Cc1ccc(C(=N)N)cc1)C(=O)N[C@@H](CCC(=O)O)C(=O)N[C@@H](CC(N)=O)C(=O)NCc1ccc2ccccc2c1` [Alloc--pAph--Glu--Asn-2-naphthylmethylamide], the Ki worked out at 27 nM.

As for `C=CCOC(=O)N[C@@H](Cc1ccc(C(=N)N)cc1)C(=O)N[C@@H](CCC(=O)O)C(=O)N[C@@H](CC(N)=O)C(=O)NCC1CCCO1` (some centres unmarked) [Alloc--pAph--Glu--Asn-2-tetrahydrofuranylmethylamide], the Ki worked out at 170 nM.

Turning to `C=CCOC(=O)N[C@@H](Cc1ccc(C(=N)N)cc1)C(=O)N[C@@H](CCC(=O)O)C(=O)N[C@@H](CC(N)=O)C(=O)NCCC(c1ccccc1)c1ccccc1` [Alloc--pAph--Glu--Asn-3,3-diphenylpropylamide], the Ki was determined as 24 nM.

As to `C=CCOC(=O)N[C@@H](Cc1ccc(C(=N)N)cc1)C(=O)N[C@@H](CCC(=O)O)C(=O)N[C@@H](CC(N)=O)C(=O)NCc1ccc(Cl)c(Cl)c1` [Alloc--pAph--Glu--Asn-3,4-dichlorobenzylamide], the Ki worked out at 26 nM.

As for `C=CCOC(=O)N[C@@H](Cc1ccc(C(=N)N)cc1)C(=O)N[C@@H](CCC(=O)O)C(=O)N[C@@H](CC(N)=O)C(=O)NCc1ccc2c(c1)OCO2` [Alloc--pAph--Glu--Asn-3,4-methylenedioxybenzylamide], the Ki amounted to 120 nM.

In the case of `C=CCOC(=O)N[C@@H](Cc1ccc(C(=N)N)cc1)C(=O)N[C@@H](CCC(=O)O)C(=O)N[C@@H](CC(N)=O)C(=O)NCc1cc(C(F)(F)F)cc(C(F)(F)F)c1` [Alloc--pAph--Glu--Asn-3,5-bistrifluoromethylbenzylamide], the inhibition constant (Ki) came to 33 nM.

For the compound `C=CCOC(=O)N[C@@H](Cc1ccc(C(=N)N)cc1)C(=O)N[C@@H](CCC(=O)O)C(=O)N[C@@H](CC(N)=O)C(=O)NCCC(C)C` [Alloc--pAph--Glu--Asn-3-methylbutylamide], the inhibition constant Ki turned out to be 110 nM.

Take `C=CCOC(=O)N[C@@H](Cc1ccc(C(=N)N)cc1)C(=O)N[C@@H](CCC(=O)O)C(=O)N[C@@H](CC(N)=O)C(=O)NCCCc1ccccc1` [Alloc--pAph--Glu--Asn-3-phenylpropylamide]: the Ki is 26 nM.

As for `C=CCOC(=O)N[C@@H](Cc1ccc(C(=N)N)cc1)C(=O)N[C@@H](CCC(=O)O)C(=O)N[C@@H](CC(N)=O)C(=O)NCc1ccc(N(C)C)cc1` [Alloc--pAph--Glu--Asn-4-dimethylaminobenzylamide], the Ki stood at 110 nM.

With `C=CCOC(=O)N[C@@H](Cc1ccc(C(=N)N)cc1)C(=O)N[C@@H](CCC(=O)O)C(=O)N[C@@H](CC(N)=O)C(=O)NCc1ccc(OC)cc1` [Alloc--pAph--Glu--Asn-4-methoxybenzylamide], the Ki came to 83 nM.

Regarding `C=CCOC(=O)N[C@@H](Cc1ccc(C(=N)N)cc1)C(=O)N[C@@H](CCC(=O)O)C(=O)N[C@@H](CC(N)=O)C(=O)NC1c2ccccc2-c2ccccc21` [Alloc--pAph--Glu--Asn-9-fluorenylamide], the Ki came out at 23 nM.

For `C=CCOC(=O)N[C@@H](Cc1ccc(C(=N)N)cc1)C(=O)N[C@@H](CCC(=O)O)C(=O)N[C@@H](CC(N)=O)C(=O)N[C@@H](CC1CCCCC1)C(N)=O` [Alloc--pAph--Glu--Asn--Cha--NH2, Alloc-pAph-Glu-Asn-Cha-NH2] (Alloc-[Phe(4-amidino)]EN[Cha]-NH2), the Ki is 21 nM.

Regarding `C=CCOC(=O)N[C@@H](Cc1ccc(C(=N)N)cc1)C(=O)N[C@@H](CCC(=O)O)C(=O)N[C@@H](CC(N)=O)C(=O)NCC1CCCCC1` [Alloc--pAph--Glu--Asn--NH--CH2 --Chx, Alloc-pAph-Glu-Asn-NH--CH2 -Chx], the Ki came to 150 nM.

With `C=CCOC(=O)N[C@@H](Cc1ccc(C(=N)N)cc1)C(=O)N[C@@H](CCC(=O)O)C(=O)N[C@@H](CC(N)=O)C(=O)N(Cc1ccccc1)Cc1ccccc1` [Alloc--pAph--Glu--Asn-N,N-dibenzylamide], the Ki worked out at 410 nM.

`C=CCOC(=O)N[C@@H](Cc1ccc(C(=N)N)cc1)C(=O)N[C@@H](CCC(=O)O)C(=O)N[C@@H](CC(N)=O)C(=O)N(C)Cc1cccc2ccccc12` [Alloc--pAph--Glu--Asn-N-methyl-N-(1-naphthylmethyl)amide]: the inhibition constant Ki was found to be 1700 nM.

On to `C=CCOC(=O)N[C@@H](Cc1ccc(C(=N)N)cc1)C(=O)N[C@@H](CCC(=O)O)C(=O)N[C@@H](CSCNC(C)=O)C(=O)N[C@@H](CC1CCCCC1)C(N)=O` [Alloc--pAph--Glu--Cys(Acm)--Cha--NH2] (Alloc-[Phe(4-amidino)]EC(Acm)[Cha]-NH2), for which the inhibitory constant (Ki) came to 120 nM.

Source of the values: patent publication US6287794A, “Factor Vlla inhibitors” (Aventis Pharma Deutschland GmbH, priority 1998, dated 2001).
